Measurements taken from paper PMC4014147 (Environmental Science & Technology, 2014).

Tests used:
mERβ2 = target: T1, mERβ2 (Oryzias latipes, UniProt B1B6T4); experiment: Competitive ligand binding assay; set-up: species or system medaka; conditions: for RBA (%) mERβ2: ratio of IC50 of E2β to IC50 of competitor
T1 sequence (B1B6T4 1-542): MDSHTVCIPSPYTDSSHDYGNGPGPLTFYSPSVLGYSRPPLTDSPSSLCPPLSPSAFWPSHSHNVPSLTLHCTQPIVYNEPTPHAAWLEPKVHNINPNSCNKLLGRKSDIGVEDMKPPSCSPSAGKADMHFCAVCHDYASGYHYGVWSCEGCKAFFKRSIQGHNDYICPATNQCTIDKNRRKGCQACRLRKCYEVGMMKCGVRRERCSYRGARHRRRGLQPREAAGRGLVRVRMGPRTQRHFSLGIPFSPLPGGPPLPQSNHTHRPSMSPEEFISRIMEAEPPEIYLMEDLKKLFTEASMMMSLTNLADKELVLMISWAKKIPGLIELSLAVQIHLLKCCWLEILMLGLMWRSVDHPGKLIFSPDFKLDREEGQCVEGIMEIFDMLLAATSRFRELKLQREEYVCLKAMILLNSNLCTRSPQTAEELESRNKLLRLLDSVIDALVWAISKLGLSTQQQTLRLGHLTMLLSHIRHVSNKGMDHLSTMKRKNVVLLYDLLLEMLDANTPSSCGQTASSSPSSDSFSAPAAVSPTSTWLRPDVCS

mERβ1 = target: T2, mERβ1 (Oryzias latipes, UniProt A0ACM8PZQ7); experiment: Competitive ligand binding assay; set-up: species or system medaka; conditions: for RBA (%) mERβ1: ratio of IC50 of E2β to IC50 of competitor
T2 sequence (A0ACM8PZQ7 1-562): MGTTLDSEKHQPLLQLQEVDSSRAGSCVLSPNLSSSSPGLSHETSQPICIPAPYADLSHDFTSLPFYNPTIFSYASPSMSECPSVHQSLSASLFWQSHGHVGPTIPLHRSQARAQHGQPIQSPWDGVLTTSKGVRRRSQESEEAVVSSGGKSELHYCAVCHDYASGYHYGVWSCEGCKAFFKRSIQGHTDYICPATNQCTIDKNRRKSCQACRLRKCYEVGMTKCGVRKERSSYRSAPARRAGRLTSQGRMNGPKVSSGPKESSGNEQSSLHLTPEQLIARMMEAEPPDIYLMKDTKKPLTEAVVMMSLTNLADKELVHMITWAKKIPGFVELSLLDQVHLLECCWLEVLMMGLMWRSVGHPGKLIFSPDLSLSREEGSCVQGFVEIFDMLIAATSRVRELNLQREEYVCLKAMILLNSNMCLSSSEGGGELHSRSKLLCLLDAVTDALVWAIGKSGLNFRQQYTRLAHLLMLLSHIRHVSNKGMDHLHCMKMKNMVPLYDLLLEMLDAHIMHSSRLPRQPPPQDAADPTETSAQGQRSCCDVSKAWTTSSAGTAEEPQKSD

[1] = tested on: hepatic gene expression in male Japanese medaka; experiment: Medaka 7-day waterborne exposure, hepatic gene expression by qPCR; type: in vivo, Japanese medaka (Oryzias latipes)
hERα and hERβ = experiment: T47D-KBluc estrogen screening assay, luciferase reporter; conditions: YES-calibrated stock solutions
mERα = target: T3, mERα (Oryzias latipes, UniProt P50241); experiment: biochemical; type: binding, medaka
T3 sequence (P50241 1-620): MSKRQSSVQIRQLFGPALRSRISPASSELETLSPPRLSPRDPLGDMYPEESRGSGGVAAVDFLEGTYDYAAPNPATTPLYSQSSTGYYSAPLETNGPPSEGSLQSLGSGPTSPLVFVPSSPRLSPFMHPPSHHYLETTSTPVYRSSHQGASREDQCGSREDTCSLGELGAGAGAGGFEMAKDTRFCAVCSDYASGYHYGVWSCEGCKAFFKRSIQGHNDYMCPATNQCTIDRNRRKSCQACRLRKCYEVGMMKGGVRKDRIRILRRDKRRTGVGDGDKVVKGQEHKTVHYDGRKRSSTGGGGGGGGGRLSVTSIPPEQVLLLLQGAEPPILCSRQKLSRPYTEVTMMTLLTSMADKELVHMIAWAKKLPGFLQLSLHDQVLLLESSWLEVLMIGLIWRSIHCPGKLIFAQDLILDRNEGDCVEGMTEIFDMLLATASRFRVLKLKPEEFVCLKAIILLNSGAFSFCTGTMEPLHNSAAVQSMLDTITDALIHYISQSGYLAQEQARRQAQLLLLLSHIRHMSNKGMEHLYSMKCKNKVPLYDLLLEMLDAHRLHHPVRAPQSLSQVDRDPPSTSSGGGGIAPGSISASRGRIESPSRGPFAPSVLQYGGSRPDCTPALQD

mERα, mERβ1, and mERβ2 = experiment: Ligand binding assays, comparison of affinity across mER subtypes; set-up: species or system medaka; conditions: from IC50 of competitive binding
[2] = liver of E2β-exposed male medaka, mERα expression as calibrator
[3] = male medaka liver, 7 days, YES-derived EEQ 0.64 nM, relative to negative control

SMILES | IC50 (mERβ2) [nM] | RBA (%) mERβ2 (mERβ2) [%] | IC50 (mERβ1) [nM] | RBA (%) mERβ1 (mERβ1) [%] | mERα expression above mERβ1 [1, 2] [fold] | mERα expression above mERβ2 [1, 2] [fold] | Chg-H gene induction [1, 3] | Chg-Hm gene induction [1, 3] | Chg-L gene induction [1, 3] [fold] | Vtg-1 gene induction [1, 3] | Vtg-2 gene induction [1, 3] | mERα induction [1, 3] [fold] | more potent in the T47D-KBluc versus the YES (hERα and hERβ) | IC50 (mERα) [nM] | RBA (%) mERα (mERα; ratio of IC50 of E2β to IC50 of competitor) [%] | higher affinity for mERβ1 versus mERβ2 (mERα, mERβ1, and mERβ2) [fold] | potency less in the T47D-KBluc versus the YES (hERα and hERβ) [fold]
C[C@]12CC[C@@H]3c4ccc(O)cc4CC[C@H]3[C@@H]1CC[C@@H]2O [E2β, 17β-estradiol] | 2.1 | 100.0 | 1.8 | 100.0 | 23 | 5 | 12,730 fold | 3,796 fold | 324 | 27,004 fold | 73,735 fold | 72 |  |  |  |  | 
C[C@]12CC[C@@H]3c4ccc(O)cc4CC[C@H]3[C@@H]1CCC2=O [E1, estrone] | 14.4 | 14.6 | 14.4 | 12.6 |  |  |  |  |  |  |  | 56 | slightly more potent | 8.4 | 36.7 |  | 
C[C@]12CC[C@@H]3c4ccc(O)cc4CC[C@H]3[C@@H]1C[C@@H](O)[C@@H]2O [E3, estriol] | 34.2 | 6.1 | 18.1 | 10.0 |  |  |  |  |  |  |  | 67 | approximately 10 fold |  |  | 1.9 | 
C[C@]12CC[C@@H]3c4ccc(O)cc4CC[C@H]3[C@@H]1CC[C@H]2O [E2α, 17α-estradiol] | 31.1 | 6.8 | 18.8 | 9.6 |  |  |  |  |  |  |  | 24 |  |  |  |  | 3.3
